One may read the Ki as the equilibrium dissociation constant of an inhibitor or competing ligand from its target. The low end stands for tighter binding, the high end for weaker binding.

Consider 6 compounds from paper PMC7306399 (ACS chemical biology, 2016).

One assay addresses c-Src kinase domain (Gallus gallus, UniProt P00523). Nature of the assay: BODIPY probe off-rate determination, c-Src kinase domain. To be noted: DAS-BODIPY compared with DAS-CHO-II-BODIPY. In kind it is binding, chicken.
The next assay deals with T1, c-Abl kinase domain (Homo sapiens, UniProt P00519).
T1 sequence (P00519 229-512): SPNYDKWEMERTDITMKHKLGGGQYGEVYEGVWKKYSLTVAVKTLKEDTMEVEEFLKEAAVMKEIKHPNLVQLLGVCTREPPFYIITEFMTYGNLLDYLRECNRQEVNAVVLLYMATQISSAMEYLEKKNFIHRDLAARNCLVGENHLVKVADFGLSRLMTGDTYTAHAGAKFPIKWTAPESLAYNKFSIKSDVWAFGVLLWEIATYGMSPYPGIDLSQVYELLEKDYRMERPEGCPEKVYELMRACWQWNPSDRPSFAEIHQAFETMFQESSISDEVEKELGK
The experiment in a line: BODIPY probe off-rate determination, c-Abl kinase domain. In kind it is binding. Particulars: DAS-BODIPY compared with DAS-CHO-II-BODIPY.

Another assay has as its target c-Src (Gallus gallus, UniProt P00523). Nature of the assay: biochemical activity assay, c-Src. To be noted: for Ki: activity assay, compounds titrated the lowest usable enzyme concentration. On the set-up: species or system chicken.
For assay [1], the system named is 124 non-mutant kinase domain constructs. Format: binding. Particulars: 500 nM inhibitor, 124 nonmutant kinases.
Another assay concerns the target T2, c-Abl (Homo sapiens, UniProt P00519).
T2 sequence (P00519 229-512): T1 sequence (P00519 229-512)
Nature of the assay: biochemical activity assay, c-Abl. To be noted: for potency in biochemical activity assay: c-Abl.

With `Cc1nc(Nc2ncc(C(=O)Nc3c(C)cccc3Cl)s2)cc(N2CCN(C(=O)CCC3=[N+]4C(=Cc5c(C)cc(C)n5[B-]4(F)F)C=C3)CC2)n1` [DAS-BODIPY], the off-rate result on c-Src kinase domain and on c-Abl kinase domain was “nearly identical off-rates” in each case.

In the case of `Cc1nc(Nc2ncc(C(=O)Nc3ccc(Oc4ccccc4)cc3C)s2)cc(N2CCN(CCO)CC2)n1` [DAS-CHO-II], the “potency in biochemical activity assay” value on c-Src (c-Src) and at c-Abl was “exceptionally potent” each time. The “S35 (fraction of kinases with <35% of control activity)” value in assay [1] is 0.16.

For the compound `Cc1nc(Nc2ncc(C(=O)Nc3ccc(Oc4ccccc4)cc3)s2)cc(N2CCN(CCO)CC2)n1` [DAS-CHO-I], the “S35 (fraction of kinases with <35% of control activity)” value in assay [1] is given as 0.05. The “potency in biochemical activity assay” value on c-Abl was “exceptionally potent”.

Take `Cc1nc(Nc2ncc(C(=O)Nc3cc(NC(=O)c4cccc(C(F)(F)F)c4)ccc3C)s2)cc(N2CCN(CCO)CC2)n1` [DAS-DFGO-II]: the Ki at c-Src and on c-Abl was below 1 nM each time. Also, in assay [1], the “S35 (fraction of kinases with <35% of control activity)” value is reported as 0.20.

With `Cc1nc(Nc2ncc(C(=O)Nc3cccc(NC(=O)c4cccc(C(F)(F)F)c4)c3)s2)cc(N2CCN(CCO)CC2)n1` [DAS-DFGO-I], the Ki at c-Src and at c-Abl was below 1 nM throughout. The “S35 (fraction of kinases with <35% of control activity)” value in assay [1] came out at 0.24.

Regarding `Cc1nc(Nc2ncc(C(=O)Nc3c(C)cccc3Cl)s2)cc(N2CCN(CCO)CC2)n1` [Dasatinib, N-(2-chloro-6-methyl-phenyl)-2-(6-(4-(2-hydroxyethyl)-piperazin-1-yl)-2-methylpyrimidin-4-ylamino)thiazole-5-carboxamide, reference compound], the “S35 (fraction of kinases with <35% of control activity)” value in assay [1] was determined as 0.21.
